According to US9169229B2, “Method for producing purified dialkyl-furan-2,5-dicarboxylate by physical separation and solid liquid separation” (Eastman Chemical Company, priority 2012, dated 2015):

Assays:
[1] = Solubility of DMFD in water (jacketed solubility cell, samples analyzed by gas chromatography); format: physicochemical
Experimental: (§1) The solubility of DMFD in water and methanol was tested according to the following procedure: A jacketed 120 ml solubility cells equipped with a condenser, a digital thermometer, a nitrogen blanket and connected to a circulating bath capable of heating/cooling was charged with […] and water or methanol. The heterogeneous mixture was heated to the desired temperature and sample was taken using preheated fritted glass pipette. The samples were analyzed using gas chromatography.

[2] = Solubility of DMFD in methanol (jacketed solubility cell, samples analyzed by gas chromatography); format: physicochemical
Experimental: as §1

In the case of COC(=O)c1ccc(C(=O)OC)o1 [DMFD, dimethyl furan-2,5-dicarboxylate], the “solubility of DMFD in water compared to methanol (in words)” value ([1]; temperature points from about 1° C. to about 61° C.) is reported as “very low solubility in water compared to methanol”, the “DMFD Solubility (wt %) in Water” value ([1]; T 1.4 ° C.) is reported as “BDL” and the “DMFD Solubility (wt %) in Water” value ([1]; T 13.1 ° C.) is reported as “BDL”. For the same compound, the “DMFD Solubility (wt %) in Water” value ([1]; T 26.6 ° C.) was “BDL”, the “DMFD Solubility (wt %) in Water” value ([1]; T 35.6 ° C.) was “BDL” and the “DMFD Solubility (wt %) in Water” value ([1]; T 47.0 ° C.) was 0.1 wt %. The “DMFD Solubility (wt %) in Water” value ([1]; T 56.6 ° C.) was 0.2 wt %, the “DMFD Solubility (wt %) in Water” value ([1]; T 63.9 ° C.) was 0.3 wt % and the “DMFD Solubility (wt %) in Water” value ([1]; T 74.6 ° C.) was 0.4 wt %. For the same compound, the “DMFD Solubility (wt %) in Water” value ([1]; T 89.5 ° C.) was 0.9 wt %, the “DMFD Solubility (wt %) in Water” value ([1]; T 97.5 ° C.) was 1.3 wt % and the “DMFD Solubility (wt %) in Methanol” value ([2]; T 1.0 ° C.) was 0.6 wt %. For the same compound, the “DMFD Solubility (wt %) in Methanol” value ([2]; T 14.1 ° C.) was 1.4 wt %, the “DMFD Solubility (wt %) in Methanol” value ([2]; T 26.3 ° C.) was 2.8 wt % and the “DMFD Solubility (wt %) in Methanol” value ([2]; T 35.3 ° C.) was 4.5 wt %. The “DMFD Solubility (wt %) in Methanol” value ([2]; T 46.6 ° C.) was 8.7 wt %, the “DMFD Solubility (wt %) in Methanol” value ([2]; T 56.1 ° C.) was 15.4 wt % and the “DMFD Solubility (wt %) in Methanol” value ([2]; T 61.3 ° C.) was 20.8 wt %.
